Test results taken from article PMC9737847, “Complex Formation between Cytochrome c and a Tetra-alanino-calix[4]arene” (International Journal of Molecular Sciences, 2022).
pKd: −log10 of the molar value.

Biological target: T1, cytochrome c (Saccharomyces cerevisiae, UniProt P00044, C108T)
T1 construct: gene CYC1; 15N-labeled cytochrome c C102T, residues numbered from -5 to 103
Test: 1H-15N HSQC NMR titration, […] binding model, […] °C, pH […]

T1 sequence (P00044 2-109 C108T): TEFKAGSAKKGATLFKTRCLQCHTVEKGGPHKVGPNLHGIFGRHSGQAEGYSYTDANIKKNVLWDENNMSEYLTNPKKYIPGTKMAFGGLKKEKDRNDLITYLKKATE

Compound `C[C@H](NC(=O)c1cc2c3c(c1)Cc1cc(C(=O)N[C@@H](C)C(=O)O)cc4c1OCCOCCOc1c(cc(C(=O)N[C@@H](C)C(=O)O)cc1Cc1cc(C(=O)N[C@@H](C)C(=O)O)cc(c1OCCOCCO3)C2)C4)C(=O)O` [compound 1, Tetra-alanino-calix[4]arene-biscrown-3] has a pKd of ~3.40.
